Measurements published in patent US20230220313A1, “COMPOSITION AND METHOD FOR INACTIVATING A VIRUS” (RNASSIST LIMITED, priority 2020, published 2023).
Structures can show the parent of a compound that is named as a salt.

Tests used:
[1] = tested on: SARS-CoV-2; conditions: Welch et al (2020) J. Clin. Microbiology; cited from earlier work
[2] = Viscosity by falling ball method; type: physicochemical; conditions: falling ball method at 20° C.

Molecule	inactivation of SARS-CoV-2 [1]	viscosity [2] [cP]
N=C(N)N [Guanidine HCl]	not completely inactivated	–
N#CS.N=C(N)N [Guanidine thiocyanate]	not completely inactivated	–
CCCCCCCCCCCCOS(=O)(=O)[O-].[Na+] [SDS]	not completely inactivated	–
COCCOCCOCCOCCOC [Tetraethylene glycol dimethyl ether]	–	3.3
COCCOCCOCCOCCO [Tetraethylene glycol monomethyl ether]	–	12
Triton X-100	not completely inactivated	–
